Source: US20210393932A1, “DERMAL PATCHES AND GLASS SWABS FOR APPLICATION OF TOPICAL IMMUNOSENSITIZERS” (Squarex, LLC, priority 2020, published 2021)
Several values for one entry are separate records, joined by “and”; a condition that tells them apart may be missing. Equal values may be shown once.

Assay: Drug elution from SADBE dermal patches into pig skin (residual SADBE by HPLC)
Format: in vivo
Conditions: for Percent of SADBE presumed in skin / SADBE area in kimwipe swab / SADBE area, 255 nm, 24 min. (extracted from patch) / net HPLC area of SADBE lost and presumed in skin: 2% SADBE in DMSO
Protocol: Squaric acid dibutyl ester (SADBE) at 2% (w/v) concentration in dimethylsulfoxide (DMSO) was added to a skin patch for dermal dosing of SADBE to test for a delayed-type hypersensitivity response or other skin irritation and to test how much SADBE disappears from the patch with different volumes and time of exposure, and is therefore presumed to enter the skin.
One purpose of this study was to determine the time course of drug elution from the dermal patches into the skin. For that purpose, patches were applied to the skin of pigs and removed 1, 3, 6, or 24 hours later, and then extracted to determine the amount of residual SADBE drug remaining in the patch. The missing SADBE from the amount originally loaded onto the patch is presumed to have transferred into the pig skin.
The skin patches consisted of a polymer backing layer similar to 3M 9916 polyester nonwoven backing layer with adhesive, 3M 9733 polyester film laminate barrier layer, and Precision Fabrics Group 0700-00010 polyester gauze layer. The gauze was heat sealed to the barrier layer. The gauze patch area was about 3 cm^2.
Patches were removed from the pigs at the indicated times and immediately the reservoir portion of the patch was cut out and placed in a 50 ml tube with 10 ml of DMSO.
Immediately after removing the patch, a kimwipe was used to swab the spot on the pig where the patch had been in order to attempt to recover any SADBE that was on the surface of the skin and had not absorbed into the skin. After wiping with the kimwipe, the kimwipe was placed in a separate 50 ml tube containing 10 ml of DMSO.
The tubes of DMSO with patches or kimwipe were transported to our laboratory, shaken at 200 rpm for 10 minutes, and then the DMSO from each tube was placed in an injection vial and analyzed for SADBE content by HPLC on a C18 column with the program SADBE3-50 ul. SADBE elutes in this program at about 24.0 minutes and absorbs at 255 nm, so the area of the 24.0 min peak at 255 nm was used to quantify SADBE.
This program is called SADBE3-50 ul on the HPLC, with 50 ul injection. Column: USP L1 (ODS), 250 mm×4.6 mm, 5 um (C18) • Agilent part number 880995-902 Mobile phase: A: 25 mM KH2PO4 (pH5) (not pH adjusted) • B: Methanol Flow rate: 1.0 mL/min
On Aug. 6, 2018, the first set of patches was placed on 3 pigs. The patches were all held in place on the pigs by an elastic bandage wrapped around the torso of each of the pigs over the patches. The net HPLC area of SADBE lost and presumed in skin is calculated as the area predicted from the 20 ul and 50 ul controls minus the observed HPLC area of SADBE extracted from the test patch that was applied to skin.
SADBE patch testing on pigs 4 and 5 was done on Aug. 13, 2018. In this case, patches on both pigs were covered with TEGADERM™, and on one pig the TEGADERM™ was further covered by an elastic bandage as on August 6.
Summary and Conclusions of Drug Elution from Patches: The percentage of SADBE lost from the patch, and therefore presumed to be transferred into the skin, was calculated for each patch and the results for a given volume (volume of 2% SADBE solution loaded onto the patch) and time point (time patch was on the pig) were averaged, broken down by whether an elastic bandage held the patch in place on the pig or not, was averaged.

[1] = 20 ul on patch, removed at 1 h, elastic bandage (Aug. 6)
[2] = 20 ul on patch, removed at 3 h, elastic bandage (Aug. 6)
[3] = 20 ul on patch, removed at 6 h, elastic bandage (Aug. 6)
[4] = 20 ul on patch, removed at 24 h, elastic bandage (Aug. 6)
[5] = 20 ul, removed at 3 h, TEGADERM, Ace bandage no (Aug. 13)
[6] = 20 ul, removed at 3 h, TEGADERM, Ace bandage yes (Aug. 13)
[7] = 20 ul, removed at 6 h, TEGADERM, Ace bandage no (Aug. 13)
[8] = 20 ul, removed at 6 h, TEGADERM, Ace bandage yes (Aug. 13)
[9] = 50 ul on patch, removed at 1 h, elastic bandage (Aug. 6)
[10] = 50 ul on patch, removed at 3 h, elastic bandage (Aug. 6)
[11] = 50 ul on patch, removed at 6 h, elastic bandage (Aug. 6)
[12] = 50 ul on patch, removed at 24 h, elastic bandage (Aug. 6)
[13] = 50 ul, removed at 3 h, TEGADERM, Ace bandage no (Aug. 13)
[14] = 50 ul, removed at 3 h, TEGADERM, Ace bandage yes (Aug. 13)
[15] = 50 ul, removed at 6 h, TEGADERM, Ace bandage no (Aug. 13)
[16] = 50 ul, removed at 6 h, TEGADERM, Ace bandage yes (Aug. 13)
[17] = 80 ul on patch, removed at 1 h, elastic bandage (Aug. 6)
[18] = 80 ul on patch, removed at 3 h, elastic bandage (Aug. 6)
[19] = 80 ul on patch, removed at 6 h, elastic bandage (Aug. 6)
[20] = 80 ul on patch, removed at 24 h, elastic bandage (Aug. 6)

For `CCCCOc1c(OCCCC)c(=O)c1=O` [SADBE, squaric acid dibutyl ester], the “Percent of SADBE presumed in skin” value [1] was 42.8% and 45.8%, the “SADBE area in kimwipe swab” value [1] was 35 and 39 and the “SADBE area, 255 nm, 24 min. (extracted from patch)” value (shortened to “SADBE area, 255 nm”) [1] was 1941 and 1838. For the same compound, the “net HPLC area of SADBE lost and presumed in skin” value (“net HPLC area” below) [1] was 1452 and 1555, the “Percent of SADBE presumed in skin” value [2] was 78.3% and 71.9% and the “SADBE area in kimwipe swab” value [2] was 38 and 44. The “SADBE area, 255 nm” value [2] was 735 and 954, the “net HPLC area” value [2] was 2658 and 2439 and the “Percent of SADBE presumed in skin” value [3] was 92.2% and 92.8%. For the same compound, the “SADBE area in kimwipe swab” value [3] was 40 and 50, the “SADBE area, 255 nm” value [3] was 265 and 244 and the “net HPLC area” value [3] was 3128 and 3149. For the same compound, the “Percent of SADBE presumed in skin” value [4] was 94.6% and 95.5%, the “SADBE area in kimwipe swab” value [4] was 19 and 21 and the “SADBE area, 255 nm” value [4] was 182 and 151. For the same compound, the “net HPLC area” value [4] was 3211 and 3242, the “Percent of SADBE presumed in skin” value [5] was 60.4% and 38.0% and the “SADBE area, 255 nm” value [5] was 1327 and 2076. The “net HPLC area” value [5] was 2021 and 1272, the “Percent of SADBE presumed in skin” value [6] was 77.5% and 74.9% and the “SADBE area, 255 nm” value [6] was 753 and 842. The “net HPLC area” value [6] was 2595 and 2506, the “Percent of SADBE presumed in skin” value [7] was 88.4% and 70.5% and the “net HPLC area” value [7] was 2960 and 2362. The “Percent of SADBE presumed in skin” value [8] was 90.2% and 88.4%, the “SADBE area, 255 nm” value [8] was 328 and 390 and the “net HPLC area” value [8] was 3020 and 2958. For the same compound, the “Percent of SADBE presumed in skin” value [9] was 38.1% and 43.0%, the “SADBE area in kimwipe swab” value [9] was 78 and 75 and the “SADBE area, 255 nm” value [9] was 5108 and 4698. The “net HPLC area” value [9] was 3141 and 3551, the “Percent of SADBE presumed in skin” value [10] was 67.2% and 78.9% and the “SADBE area in kimwipe swab” value [10] was 52 and 78. The “SADBE area, 255 nm” value [10] was 2707 and 1741, the “net HPLC area” value [10] was 5542 and 6508 and the “Percent of SADBE presumed in skin” value [11] was 84.9% and 91.9%. The “SADBE area in kimwipe swab” value [11] was 50 and 45, the “SADBE area, 255 nm” value [11] was 1243 and 666 and the “net HPLC area” value [11] was 7006 and 7583. For the same compound, the “Percent of SADBE presumed in skin” value [12] was 97.3% and 98.4%, the “SADBE area in kimwipe swab” value [12] was 20 and 22 and the “SADBE area, 255 nm” value [12] was 224 and 128. The “net HPLC area” value [12] was 8025 and 8121, the “Percent of SADBE presumed in skin” value [13] was 50.8% and 56.9% and the “SADBE area, 255 nm” value [13] was 4058 and 3549. The “net HPLC area” value [13] was 4184 and 4693, the “Percent of SADBE presumed in skin” value [14] was 57.7% and 32.1% and the “SADBE area, 255 nm” value [14] was 3484 and 5599. For the same compound, the “net HPLC area” value [14] was 4758 and 2643, the “Percent of SADBE presumed in skin” value [15] was 70.2% and 54.9% and the “SADBE area, 255 nm” value [15] was 2454 and 3717. The “net HPLC area” value [15] was 5788 and 4525, the “Percent of SADBE presumed in skin” value [16] was 76.4% and 83.3% and the “SADBE area, 255 nm” value [16] was 1949 and 1376. For the same compound, the “net HPLC area” value [16] was 6293 and 6866, the “Percent of SADBE presumed in skin” value [17] was 24.6% and 30.2% and the “SADBE area in kimwipe swab” value [17] was 105 and 98. For the same compound, the “SADBE area, 255 nm” value [17] was 9952 and 9208, the “net HPLC area” value [17] was 3246 and 3990 and the “Percent of SADBE presumed in skin” value [18] was 27.9% and 49.0%. The “SADBE area, 255 nm” value [18] was 9517 and 6734, the “net HPLC area” value [18] was 3681 and 6464 and the “Percent of SADBE presumed in skin” value [19] was 83.4% and 81.3%. For the same compound, the “SADBE area, 255 nm” value [19] was 2192 and 2471, the “net HPLC area” value [19] was 11006 and 10727 and the “Percent of SADBE presumed in skin” value [20] was 96.1% and 97.9%. For the same compound, the “SADBE area in kimwipe swab” value [20] was 24 and 20, the “SADBE area, 255 nm” value [20] was 509 and 273 and the “net HPLC area” value [20] was 12689 and 12925. The “loaded drug transferred into the skin” value (by 6 hours, all loading volumes tested, with the elastic bandage) was “over 80%”, the “loaded drug transferred into the skin” value (by 24 hours) was “over 95%” and the “Average transfer of SADBE into skin” value (with elastic bandage, 20 ul of 2% SADBE, patch worn 1 hour) was 44.3% (n = 2). The “Average transfer of SADBE into skin” value (with elastic bandage, 20 ul of 2% SADBE, patch worn 3 hours) was 75.6% (n = 4), the “Average transfer of SADBE into skin” value (with elastic bandage, 20 ul of 2% SADBE, patch worn 6 hours) was 90.9% (n = 4) and the “Average transfer of SADBE into skin” value (with elastic bandage, 20 ul of 2% SADBE, patch worn 24 hours) was 95.1% (n = 2). For the same compound, the “Average transfer of SADBE into skin” value (with elastic bandage, 50 ul of 2% SADBE, patch worn 1 hour) was 40.6% (n = 2), the “Average transfer of SADBE into skin” value (with elastic bandage, 50 ul of 2% SADBE, patch worn 3 hours) was 59.0% (n = 4) and the “Average transfer of SADBE into skin” value (with elastic bandage, 50 ul of 2% SADBE, patch worn 6 hours) was 84.1% (n = 4). For the same compound, the “Average transfer of SADBE into skin” value (with elastic bandage, 50 ul of 2% SADBE, patch worn 24 hours) was 97.9% (n = 2), the “Average transfer of SADBE into skin” value (with elastic bandage, 80 ul of 2% SADBE, patch worn 1 hour) was 27.4% (n = 2) and the “Average transfer of SADBE into skin” value (with elastic bandage, 80 ul of 2% SADBE, patch worn 3 hours) was 38.4% (n = 2). The “Average transfer of SADBE into skin” value (with elastic bandage, 80 ul of 2% SADBE, patch worn 6 hours) was 82.3% (n = 2), the “Average transfer of SADBE into skin” value (with elastic bandage, 80 ul of 2% SADBE, patch worn 24 hours) was 97.0% (n = 2) and the “Average transfer of SADBE into skin” value (without elastic bandage, 20 ul of 2% SADBE, patch worn 3 hours) was 49.2% (n = 2). The “Average transfer of SADBE into skin” value (without elastic bandage, 20 ul of 2% SADBE, patch worn 6 hours) was 79.5% (n = 2), the “Average transfer of SADBE into skin” value (without elastic bandage, 50 ul of 2% SADBE, patch worn 3 hours) was 53.9% (n = 2) and the “Average transfer of SADBE into skin” value (without elastic bandage, 50 ul of 2% SADBE, patch worn 6 hours) was 62.6% (n = 2).
